Results taken from BindingDB's records for doi:10.1016/j.chembiol.2016.06.016 (Massachusetts Institute of Technology, 2016).

Legend:
[1] = molecular target: T1, Cytochrome b (Candida albicans, UniProt I2BJW5); assay: Cytochrome b Enzyme Assay; details: pH 7.4; 25 °C
T1 sequence (I2BJW5 whole entry): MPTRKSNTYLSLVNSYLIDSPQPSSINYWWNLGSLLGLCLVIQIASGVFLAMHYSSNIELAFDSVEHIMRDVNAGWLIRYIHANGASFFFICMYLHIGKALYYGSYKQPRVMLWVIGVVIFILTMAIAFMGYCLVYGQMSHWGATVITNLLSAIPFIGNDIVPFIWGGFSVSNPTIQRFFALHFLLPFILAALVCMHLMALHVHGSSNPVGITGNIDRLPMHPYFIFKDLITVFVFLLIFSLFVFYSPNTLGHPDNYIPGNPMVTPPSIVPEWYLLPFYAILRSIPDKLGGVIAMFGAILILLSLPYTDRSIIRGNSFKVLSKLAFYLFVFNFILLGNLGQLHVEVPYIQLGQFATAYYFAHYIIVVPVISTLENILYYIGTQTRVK
Procedure: (§1) Reaction plates were incubated at room temperature for 10 min before reading absorbance at 550 nm. Absolute IC50 values were calculated in GraphPad Prism 6.0.

[2] = molecular target: Cytochrome b (Homo sapiens, UniProt P00156); assay: Cytochrome b Enzyme Assay; details: pH 7.4; 25 °C
Cytochrome b (Homo sapiens, UniProt P00156), sequence (P00156 whole entry): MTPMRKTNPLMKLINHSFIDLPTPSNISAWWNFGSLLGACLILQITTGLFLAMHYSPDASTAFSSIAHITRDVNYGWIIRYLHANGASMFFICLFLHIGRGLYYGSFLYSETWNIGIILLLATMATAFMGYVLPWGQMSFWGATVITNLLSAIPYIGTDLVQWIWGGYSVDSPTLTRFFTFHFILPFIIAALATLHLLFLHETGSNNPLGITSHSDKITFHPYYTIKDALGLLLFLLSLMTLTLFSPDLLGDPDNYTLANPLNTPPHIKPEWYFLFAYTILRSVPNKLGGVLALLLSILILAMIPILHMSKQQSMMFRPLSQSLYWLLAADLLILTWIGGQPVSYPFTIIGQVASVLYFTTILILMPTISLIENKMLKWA
Procedure: as §1

Structure (SMILES)	IC50 [1]	IC50 [2]
COC(=O)Cc1nn(-c2ccccc2)c2ccccc12 [Inz-104]	17.6 µM	> 64 µM
c1ccc(COc2cccc(-c3n[nH]c4ccccc34)c2)cc1 [Inz-46]	> 64 µM	> 64 µM
COC(=O)Cn1nc(-c2cccc(OCc3ccccc3)c2C)c2ccccc21 [Inz-66]	1.08 µM	> 64 µM
COC(=O)Cn1nc(-c2cccc(OCCC3CCCCC3)c2)c2ccccc21 [Inz-64]	0.3 µM	3.23 µM
COC(=O)Cn1nc(-c2cccc(OCCN(C(C)C)C(C)C)c2)c2ccccc21 [Inz-67]	2.4 µM	19.3 µM
c1ccc(-c2nn(Cc3cncnc3)c3ccccc23)cc1 [Inz-93]	> 64 µM	> 64 µM
COC(=O)Cn1nc(-c2cccc(OCc3ccccc3)c2)c2ccccc21 [Inz-42]	7.24 µM	> 64 µM
COC(=O)Cn1nc(-c2cccnc2)c2ccccc21 [Inz-14]	> 64 µM	> 64 µM
COC(=O)Cn1nc(-c2cccc(OCCCC3CCCCC3)c2)c2ccccc21 [Inz-76]	1.8 µM	5.46 µM
Cc1nnc(Cn2nc(-c3ccccc3)c3ccccc32)o1 [Inz-32]	> 64 µM	> 64 µM
CC(=O)Nc1ccc2c(-c3cc(C(F)(F)F)ccc3F)nn(Cc3cnccn3)c2c1 [Inz-101]	> 64 µM	> 64 µM
O=C1C(=O)c2ccccc2C(O)=C1C1CCC(c2ccc(Cl)cc2)CC1 (centres undefined) [3-[4-(4-chlorophenyl)cyclohexyl]-4-hydroxynaphthalene-1,2-dione]	3.79 µM	1.88 µM
COC(=O)Cn1nc(-c2cccc(C#N)c2)c2ccccc21 [Inz-11]	10.1 µM	> 64 µM
COC(=O)Cn1nc(-c2ccc(CCc3ccccc3)cc2)c2ccccc21 [Inz-53]	43.4 µM	> 64 µM
COC(=O)Cn1nc(-c2cc(C(F)(F)F)ccc2F)c2ccccc21 [Inz-2]	0.145 µM	4.62 µM
COC(=O)Cn1nc(-c2cccc(OCCc3ccccc3)c2)c2ccccc21 [Inz-8]	0.346 µM	13.9 µM
COC(=O)Cn1nc(-c2cccc(C(F)(F)F)c2)c2ccccc21 [Inz-10]	1.06 µM	8.65 µM
